Laboratory results published in patent publication US20170216328A1, “METHODS AND COMPOSITIONS FOR MICROBIOME ALTERATION” (Ritter Pharmaceuticals, Inc., priority 2014, published 2017).

Test system: Bifidobacterium species and strains
Experiment: Comparative growth of Bifidobacterium species and strains in scratch MRS with 2% carbohydrate
Format: cell-based
Protocol: The objective of the study was to determine the ability of various Bifidobacterium species and strains to grow on galactooligosaccharides
The growth of Lactobacillus and Bifidobacterium strains was evaluated in scratch MRS (Table 16) supplemented with 2% of a carbohydrate solution. The carbohydrates used in the experiments were: Glucose—Fisher; Lactose—Fisher; GOS1-95% GOS purity from Inalco SPA—Provided by Ritter Pharmaceuticals; GOS2-90% GOS purity from GTC—provided by Ritter Pharmaceuticals.
Carbohydrate stock solutions were filter sterilized and then added to either a scratch MRS formulation (Table 16), or a semisynthetic medium (Table 17).
Lactobacillus and Bifidobacterium cultures were propagated in MRS broth overnight, and then transferred once through the test medium. For growth experiments, cultures were inoculated into the MRS scratch medium containing one of the 4 carbohydrates to be examined. Growth was monitored either: **automatically, using a FLUOStar OPTIMA microtiter plate reader to monitor the change in absorbance (A600) as a function of the time. The strains were incubated at 37 C aerobically for these experiments; or ** manually, using a standard spectrophotometer to monitor the change in OD600 nm over time, in 5 ml liquid culture tubes. These cultures were incubated anaerobically at 37° C. in a COY anaerobic chamber, flushed with anaerobic gas. […]

## OC[C@H]1O[C@@H](O[C@H]2[C@H](O)[C@@H](O)C(O)O[C@@H]2CO)[C@H](O)[C@@H](O)[C@H]1O (stereo partly shown) [lactose]
  Growth of Bifidobacterium strains on lactose: none of the Bifidobacterium strains used in these experiments grew on lactose, except for B. pseudolongum
